{"source": "patent US8716325B2", "about": "“Treatment of cachexia” (PsiOxus Therapeutics Limited, priority 2006, dated 2014)", "key": {"[1]": {"conditions": "cited from earlier work"}, "5-HT1a": {"molecular_target": "T1, 5-HT1a (Rattus norvegicus, UniProt P19327)", "T1 construct": "suppressant effects of 5-HT1a agonists on dorsal raphe neuronal firing; host or cells: dorsal raphe neurons (endogenous receptor)", "T1 sequence (P19327 1-422)": "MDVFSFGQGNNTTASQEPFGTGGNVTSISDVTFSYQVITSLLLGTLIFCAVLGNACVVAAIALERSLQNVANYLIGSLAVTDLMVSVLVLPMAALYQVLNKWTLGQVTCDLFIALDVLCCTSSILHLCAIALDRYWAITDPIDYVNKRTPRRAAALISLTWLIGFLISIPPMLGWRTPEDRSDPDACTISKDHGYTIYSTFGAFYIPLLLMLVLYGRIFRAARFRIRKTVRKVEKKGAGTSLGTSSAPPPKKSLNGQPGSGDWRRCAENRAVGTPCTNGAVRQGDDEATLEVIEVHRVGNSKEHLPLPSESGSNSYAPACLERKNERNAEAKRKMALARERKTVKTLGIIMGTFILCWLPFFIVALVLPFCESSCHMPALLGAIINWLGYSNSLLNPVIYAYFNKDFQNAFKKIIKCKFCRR", "conditions": "functional tests, Eur J Pharmacol. 1986; 128 (3): 295-8; cited from earlier work"}, "[2]": {"tested_on": "Ascites hepatoma Yoshida AH-130 cells", "experiment": "Yoshida AH-130 ascites hepatoma rat model of cancer cachexia", "format": "in vivo, male Wistar rats", "conditions": "for Locomotor activity 24 h day 11: Supermex system, marker for fatigue; for Locomotor activity 24 h day 11 / Food intake day 11 / Lean tissue gain without tumour / Lean tissue without tumour / Weight gain without tumour / Body weight without tumour: mean±SEM; for Lean tissue gain without tumour / Lean tissue without tumour / Weight gain without tumour / Body weight without tumour: end of study; for Body weight without tumour: oral gavage, twice daily", "excerpt": "Ascites hepatoma Yoshida AH-130 cells (10^8 cells) are inoculated into 180-200 g male Wistar rats. Alternatively animals receive saline injection only (sham). The animals are housed in groups of three. The day after inoculation animals are randomized into various groups and then receive twice daily treatment with either placebo or compounds over a period of up to 17 days. The primary endpoints of the study include assessment of body weight, body composition (with and without tumour) and survival. Organ weight is assessed at the end of the study (or after death) as a secondary endpoint. In addition locomotor activity is used to assess fatigue using Supermex system (Muromachi, Tokyo, Japan) over a period of 24 hours in cages where the animals are placed individually (type 3 cage); missing data (if due to death) are imputed as ‘zero’ activity; a sensitivity analysis without imputed points is additionally performed. Food intake is also measured. Results are expressed as mean±SEM at the end of the study except where stated otherwise. Doses represent total daily dose given by oral gavage."}, "[3]": {"conditions": "animal model of cancer cachexia, summary in words"}}, "note": "Read-outs that look alike come from different tables or passages of the source."}
{"smiles": "CC(C)NCC(O)COc1cccc2[nH]ccc12", "note": "(racemic) [racemic pindolol, pindolol, reference compound]", "values": [{"measurement": "Effect on blood pressure", "setting": "[1]; healthy subjects, similar dose of (S)-pindolol and racemic pindolol", "value": "reducing diastolic blood pressure"}]}
{"smiles": "CC(C)NC[C@@H](O)COc1cccc2ccccc12", "note": "[(R)-propranolol, reference compound]", "values": [{"measurement": "Block of the suppressant effects of 5-HT1a agonists on dorsal raphe neuronal firing", "setting": "5-HT1a", "value": "not"}]}
{"smiles": "CC(C)NC[C@H](O)COc1cccc2ccccc12", "note": "[(S)-propranolol, (S)-1-isopropylamino-3-(1-naphthyloxy)-2-propanol]", "values": [{"measurement": "Block of the suppressant effects of 5-HT1a agonists on dorsal raphe neuronal firing", "setting": "5-HT1a", "value": "blocked the suppressant effects"}]}
{"smiles": "CC(C)NCC(O)COc1ccc(COCCOC(C)C)cc1", "note": "(centres unmarked) [Bisoprolol, reference compound]", "values": [{"measurement": "Locomotor activity 24 h day 11", "setting": "[2]; 5 mg/kg/d oral gavage", "value": "315 ± 58"}, {"measurement": "Food intake day 11", "setting": "[2]; 5 mg/kg/d oral gavage", "value": "16.00 ± 3.07", "unit": "g"}, {"measurement": "Lean tissue gain without tumour", "setting": "[2]; 5 mg/kg/d oral gavage", "value": "-1.38 ± 11.31", "unit": "g"}, {"measurement": "Lean tissue without tumour", "setting": "[2]; 5 mg/kg/d oral gavage", "value": "158.10 ± 11.86", "unit": "g"}, {"measurement": "Weight gain without tumour", "setting": "[2]; 5 mg/kg/d oral gavage", "value": "-5.46 ± 15.95", "unit": "g"}, {"measurement": "Body weight without tumour", "setting": "[2]; 5 mg/kg/d total daily dose", "value": "202.0 ± 16.04", "unit": "g"}, {"measurement": "Locomotor activity 24 h day 11", "setting": "[2]; 50 mg/kg/d oral gavage", "value": "277 ± 39"}, {"measurement": "Food intake day 11", "setting": "[2]; 50 mg/kg/d oral gavage", "value": "9.94 ± 2.10", "unit": "g"}, {"measurement": "Lean tissue gain without tumour", "setting": "[2]; 50 mg/kg/d oral gavage", "value": "-28.96 ± 6.64", "unit": "g"}, {"measurement": "Lean tissue without tumour", "setting": "[2]; 50 mg/kg/d oral gavage", "value": "124.77 ± 7.17", "unit": "g"}, {"measurement": "Weight gain without tumour", "setting": "[2]; 50 mg/kg/d oral gavage", "value": "-30.30 ± 10.95", "unit": "g"}, {"measurement": "Body weight without tumour", "setting": "[2]; 50 mg/kg/d total daily dose", "value": "159.18 ± 9.64", "unit": "g"}, {"measurement": "Effect on locomotor activity, as a marker for fatigue", "setting": "[2]; [3]", "value": "neutral to negative"}]}
{"smiles": "CC(C)NC[C@H](O)COc1cccc2[nH]ccc12", "note": "[S-pindolol, S-(−)-1-(1H-indol-4-yloxy)-3-(1-methylethylamino)propan-2-ol]", "values": [{"measurement": "Locomotor activity 24 h day 11", "setting": "[2]; 0.3 mg/kg/d oral gavage", "value": "361 ± 38"}, {"measurement": "Food intake day 11", "setting": "[2]; 0.3 mg/kg/d oral gavage", "value": "7.75 ± 5.22", "unit": "g"}, {"measurement": "Lean tissue gain without tumour", "setting": "[2]; 0.3 mg/kg/d oral gavage", "value": "-1.17 ± 15.84", "unit": "g"}, {"measurement": "Lean tissue without tumour", "setting": "[2]; 0.3 mg/kg/d oral gavage", "value": "152.37 ± 15.47", "unit": "g"}, {"measurement": "Weight gain without tumour", "setting": "[2]; 0.3 mg/kg/d oral gavage", "value": "-8.50 ± 19.19", "unit": "g"}, {"measurement": "Body weight without tumour", "setting": "[2]; 0.3 mg/kg/d total daily dose", "value": "178.89 ± 17.04", "unit": "g"}, {"measurement": "Locomotor activity 24 h day 11", "setting": "[2]; 3 mg/kg/d oral gavage", "value": "368 ± 50"}, {"measurement": "Food intake day 11", "setting": "[2]; 3 mg/kg/d oral gavage", "value": "15.33 ± 3.84", "unit": "g"}, {"measurement": "Lean tissue gain without tumour", "setting": "[2]; 3 mg/kg/d oral gavage", "value": "18.90 ± 16.06", "unit": "g"}, {"measurement": "Lean tissue without tumour", "setting": "[2]; 3 mg/kg/d oral gavage", "value": "171.99 ± 15.92", "unit": "g"}, {"measurement": "Weight gain without tumour", "setting": "[2]; 3 mg/kg/d oral gavage", "value": "17.30 ± 20.08", "unit": "g"}, {"measurement": "Body weight without tumour", "setting": "[2]; 3 mg/kg/d total daily dose", "value": "215.10 ± 19.89", "unit": "g"}, {"measurement": "Effect on cachectic weight loss", "setting": "[2]; [3]", "value": "able to reduce cachectic weight loss"}, {"measurement": "Effect on locomotor activity, as a marker for fatigue", "setting": "[2]; [3]", "value": "positive effect on locomotor activity"}, {"measurement": "Effect on tumour weight", "setting": "[2]; [3]", "value": "reducing the tumour weight"}, {"measurement": "Effect on blood pressure", "setting": "[1]; in vivo", "value": "no alteration in blood pressure in a majority of healthy subjects"}]}
